Results reported in PubChem BioAssay (NCI).
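Step 1: Grow cells in 96-well plates. Step 2: Expose to compound for 48 hours at 5 concentrations. Step 3: Interpolate endpoints linearly; if unreached, use highest concentration. At the GI50, growth is halved. The concentration for full growth arrest is given as TGI.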

Columns and labels:
Assay in all cases: growth of human tumour cells (NCI), 48 h
UACC-257 melanoma = tested on: UACC-257 melanoma
SF-268 CNS = tested on: SF-268 CNS
TK-10 renal = tested on: TK-10 renal
HOP-92 NSCLC = tested on: HOP-92 NSCLC
SK-OV-3 ovarian = tested on: SK-OV-3 ovarian
K-562 leukemia = tested on: K-562 leukemia
A549 NSCLC = tested on: A549 NSCLC
786-0 renal = tested on: 786-0 renal
NCI-H226 lung = tested on: NCI-H226 lung
NCI/ADR-RES ovarian = tested on: NCI/ADR-RES ovarian

| SMILES | TGI (UACC-257 melanoma) [µM] | TGI (SF-268 CNS) [µM] | TGI (TK-10 renal) [µM] | TGI (HOP-92 NSCLC) [µM] | TGI (SK-OV-3 ovarian) [µM] | TGI (K-562 leukemia) [µM] | TGI (A549 NSCLC) [µM] | TGI (786-0 renal) [µM] | GI50 (SF-268 CNS) [µM] | GI50 (TK-10 renal) [µM] | GI50 (HOP-92 NSCLC) [µM] | GI50 (SK-OV-3 ovarian) [µM] | GI50 (K-562 leukemia) [µM] | GI50 (A549 NSCLC) [µM] | GI50 (786-0 renal) [µM] | TGI (NCI-H226 lung) [µM] | TGI (NCI/ADR-RES ovarian) [µM] | GI50 (UACC-257 melanoma) [µM] | GI50 (NCI-H226 lung) [µM] | GI50 (NCI/ADR-RES ovarian) [µM] |
| --- | --- | --- | --- | --- | --- | --- | --- | --- | --- | --- | --- | --- | --- | --- | --- | --- | --- | --- | --- | --- |
| N#C/C(=C1\OC(N)=C(c2ccc(Cl)cc2)C1=O)c1ccc(Cl)cc1 | 29 | > 100 | 41.4 | 32.2 | 89.1 | > 100 | 50.9 | 29.4 |  |  |  |  |  |  |  |  |  |  |  |  |
| CC(=O)/C(=C/N1CCN(C(=O)c2ccco2)C1=S)C(=O)c1ccccc1 |  | 27 | 28.6 | 32.1 | > 50 | 41.6 | 26.9 | 25.1 | 10.7 | 10.6 | 11.1 | 17.5 | 6.66 | 10.8 | 11.2 |  |  |  |  |  |
| CC1=C2C3OC(=O)C(C)C3C(O)C[C@@]2(C)C(=O)CC1 (some centres undefined) | > 100 | > 100 | > 100 | > 100 | > 100 |  | > 100 | > 100 |  |  |  |  |  |  |  | > 100 |  |  |  |  |
| C/C(=N\Nc1n[nH]c(=S)n1N)c1c(O)cc(C)oc1=O | > 100 | > 100 | > 100 | > 100 | > 100 | > 100 | > 100 | > 100 |  |  |  |  |  |  |  | > 100 |  |  |  |  |
| CC(=O)OC1=C(CC(C)(C)C)C(=O)c2ccccc2C1=O | > 100 | 74.9 | > 100 |  | 66.2 | 39.9 |  | > 100 |  |  |  |  |  |  |  | > 100 | 85.3 |  |  |  |
| CCSc1nc(N)c2cnn(CC)c2n1 | 36.5 | 66.7 | 36.1 |  | > 100 | > 100 | 20.9 | > 100 | 23.3 | 4.56 |  | 23.9 | 9.11 | 3.83 | 26.5 | 30.9 | 63.3 | 10.2 | 3.41 | 18.5 |
| O=C1C(=Cc2ccc(F)cc2)C(=O)c2ccccc21 | > 100 | > 100 | > 100 | > 100 | > 100 | > 100 | > 100 | > 100 |  |  |  |  |  |  |  | > 100 |  |  |  |  |
| NC(=O)c1nc(-c2ccc(Cl)c(Cl)c2)nc2ccccc12 | > 100 | > 100 | > 100 | 4.74 | > 27.3 | > 31.6 | > 100 | > 100 |  |  |  |  |  |  |  | > 100 |  |  |  |  |
| COc1ccc(/C=C2/CSC/C(=C/c3ccc(OC)c(OC)c3)C2=O)cc1OC | 16.9 | 18.4 | 29.5 | 43.7 | 42.6 |  | 8.39 | 3.56 |  |  |  |  |  |  |  | 7.15 |  |  |  |  |
| CCOC(=O)CN1C(=O)C(=O)N(c2ccc(OC)c3ccccc23)C1=O | > 100 | > 100 | > 100 |  | > 100 | > 100 | > 100 | > 100 |  |  |  |  |  |  |  | > 100 | > 100 |  |  |  |
| COc1cc(CCc2ccncc2)cc(OC)c1OC | > 100 | > 100 | > 100 | > 100 |  | > 100 | > 100 | > 100 |  |  |  |  |  |  |  | > 100 |  |  |  |  |
| O=C(CCc1cc(-c2ccc(F)cc2)n[nH]1)N(Cc1ccccc1)Cc1ccccc1 | > 100 | > 100 | > 100 | > 100 | > 100 | > 100 | > 100 | > 100 |  |  |  |  |  |  |  | > 100 |  |  |  |  |
| C[C@@H](C[C@H](CCO)c1ccccc1)c1ccc2ccccc2c1 |  | 3.09 | 3.12 | 2.77 | 3.1 | 3.82 | 3.14 | 2.89 | 1.48 | 1.62 | 1.39 | 1.7 | 1.63 | 1.71 | 1.51 |  | 3.4 |  |  | 1.66 |
| C=CCO[C@H]1CC[C@@]2(C)C(CC[C@]3(C)C2CC=C2[C@@H]4[C@@H](C)C(C)CC[C@]4(C(=O)O)CCC23C)C1(C)C (some centres undefined) | 32.3 | 40.5 | 32.2 | 32.4 | 31.7 | 28.6 | 32.7 | 30.6 |  |  |  |  |  |  |  | 39.6 |  |  |  |  |
| C=CCCC(=O)CC(=O)OCc1ccccc1 | > 100 | > 100 | > 100 | > 100 | > 100 | > 100 | > 100 | > 100 |  |  |  |  |  |  |  |  |  |  |  |  |
| Oc1ccc(O)c(-n2cccn2)c1-n1cccn1 |  | > 100 | > 100 | > 100 | > 100 | > 100 | > 100 | > 100 |  |  |  |  |  |  |  |  |  |  |  |  |
| CCCCCC/C(CC(=O)CCC(=O)NCCc1ccccc1)=N\Nc1ccc([N+](=O)[O-])cc1[N+](=O)[O-] | > 100 | > 100 | > 100 | > 100 | > 100 | > 100 | > 100 | > 100 |  |  |  |  |  |  |  | > 100 |  |  |  |  |
| N#CC(C#N)C(c1ccccc1)c1ccccc1 | > 100 | > 100 | > 100 | > 100 | > 100 | > 100 | > 100 | > 100 |  |  |  |  |  |  |  | > 100 |  |  |  |  |
| Cc1nc(-n2nc(-c3ccccc3)cc2-c2ccccc2)sc1C(=O)CC(=O)C(=O)Nc1ccc(O)cc1 | > 100 | > 100 | > 100 |  | > 100 | > 100 | > 100 | > 100 |  |  |  |  |  |  |  | > 100 |  |  |  |  |
| CN(C)C(=S)/N=c1\ss/c(=N\S(=O)(=O)c2ccccc2)n1C | > 100 | > 100 | > 100 | > 100 | > 100 | > 100 | > 100 | > 100 |  |  |  |  |  |  |  | > 100 |  |  |  |  |
| CCN1CCC(O)(/C=C/c2ccccc2)C(C(=O)/C=C/c2ccccc2)C1 (centres undefined) | 4.55 | 7.36 | 7.88 | 8.76 | 19.7 |  | 16.8 | 3.32 |  |  |  |  |  |  |  | 9.93 |  |  |  |  |
| COC(=O)C#CC(N)=O | > 70.7 | > 100 | 99.1 | 40.6 | > 100 | 60.1 | > 100 | > 100 |  |  |  |  |  |  |  | > 100 |  |  |  |  |
